Key:
Experiment in all cases: Bacterial panel testing, MIC by broth microdilution
Assay type in all cases: cell-based
Conditions in all cases: 20-24 hours growth
[1] = test system: Staphylococcus aureus
Procedure: (§1) One to three colonies of bacteria were picked from an Mueller-Hinton or Brain Heart infusion agar plate (depending on the bacterial strain) and transferred to 3 ml Mueller-Hinton broth or Brain Heart infusion media (depending on the bacterial strain). Bacteria were allowed to grow for 2-4 hours in an incubator at 37° C. Bacteria-inoculated media were dispersed in 0.9% saline to match McFarland standard density. 100 μl standardized inoculation was added to 20 ml media (dilution 1). 10 μl of the new dilution was added to 990 μl media and mixed (dilution 2). 10 μl of dilution 2 was spread on an agar plate and allowed to grow overnight. Colonies were then […].
(§2) Test compound was diluted to 10 μg/ml in dimethylsulfoxide. Four μl of Rifampicin antibiotic was loaded into row H, column 2.
(§3) All wells were then filled with 100 μl of inoculated media (dilution 1 from Example 1). A further 100 μl of the inoculated media was then added to column 2 and the contents are pipetted to thoroughly mix the contents. A full 100 μl was then transferred from column 2 and mixed into column 3. This process was continued from left to right until columns 2-12 were serially diluted, and the final draw from column 12 was discarded. The plates were covered with 3M sealing tape (plates containing Enterococcus faecium were sealed with Air Pore sealing tape) and allowed to grow for 20-24 hours. Cytotoxic wells (clear wells) are then scored and the potency of the compound was determined.

[2] = test system: Enterococcus faecium
Procedure: as §1, §2, §3

[3] = test system: Pseudomonas aeruginosa
Procedure: as §1, §2, §3

[4] = test system: Salmonella choleraesuis
Procedure: as §1, §2, §3

[5] = test system: Eschericia coli
Procedure: as §1, §2, §3

CC(C)(C)OC(=O)NC(CCCN)C(=O)NCC1OC2OC3C(CNC(=O)C(CCCN)NC(=O)OC(C)(C)C)OC(OC4C(CNC(=O)C(CCCN)NC(=O)OC(C)(C)C)OC(OC5C(CNC(=O)C(CCCN)NC(=O)OC(C)(C)C)OC(OC6C(CNC(=O)C(CCCN)NC(=O)OC(C)(C)C)OC(OC7C(CNC(=O)C(CCCN)NC(=O)OC(C)(C)C)OC(OC8C(CNC(=O)C(CCCN)NC(=O)OC(C)(C)C)OC(OC1C(O)C2O)C(O)C8O)C(O)C7O)C(O)C6O)C(O)C5O)C(O)C4O)C(O)C3O.Cl.Cl.Cl.Cl.Cl.Cl.Cl (stereo not drawn)
>200 µg/mL: MIC SA [1] | MIC EF [2] | MIC PA [3]

Cl.Cl.Cl.Cl.Cl.Cl.Cl.NC(CO)C(=O)NCC1OC2OC3C(CNC(=O)C(N)CO)OC(OC4C(CNC(=O)C(N)CO)OC(OC5C(CNC(=O)C(N)CO)OC(OC6C(CNC(=O)C(N)CO)OC(OC7C(CNC(=O)C(N)CO)OC(OC8C(CNC(=O)C(N)CO)OC(OC1C(O)C2O)C(O)C8O)C(O)C7O)C(O)C6O)C(O)C5O)C(O)C4O)C(O)C3O (stereo not drawn)
>200 µg/mL: MIC SA [1] | MIC SC [4] | MIC PA [3] | MIC EC [5]

CC(O)C(N)C(=O)NCC1OC2OC3C(CNC(=O)C(N)C(C)O)OC(OC4C(CNC(=O)C(N)C(C)O)OC(OC5C(CNC(=O)C(N)C(C)O)OC(OC6C(CNC(=O)C(N)C(C)O)OC(OC7C(CNC(=O)C(N)C(C)O)OC(OC8C(CNC(=O)C(N)C(C)O)OC(OC1C(O)C2O)C(O)C8O)C(O)C7O)C(O)C6O)C(O)C5O)C(O)C4O)C(O)C3O.Cl.Cl.Cl.Cl.Cl.Cl.Cl (stereo not drawn)
>200 µg/mL: MIC SA [1] | MIC SC [4] | MIC PA [3] | MIC EC [5]

CC(C)(C)[Si](C)(C)OC1CNC(C(=O)NCC2OC3OC4C(CNC(=O)C5CC(O[Si](C)(C)C(C)(C)C)CN5)OC(OC5C(CNC(=O)C6CC(O[Si](C)(C)C(C)(C)C)CN6)OC(OC6C(CNC(=O)C7CC(O[Si](C)(C)C(C)(C)C)CN7)OC(OC7C(CNC(=O)C8CC(O[Si](C)(C)C(C)(C)C)CN8)OC(OC8C(CNC(=O)C9CC(O[Si](C)(C)C(C)(C)C)CN9)OC(OC9C(CNC(=O)C%10CC(O[Si](C)(C)C(C)(C)C)CN%10)OC(OC2C(O)C3O)C(O)C9O)C(O)C8O)C(O)C7O)C(O)C6O)C(O)C5O)C(O)C4O)C1.O=C(O)C(F)(F)F.O=C(O)C(F)(F)F.O=C(O)C(F)(F)F.O=C(O)C(F)(F)F.O=C(O)C(F)(F)F.O=C(O)C(F)(F)F.O=C(O)C(F)(F)F (stereo not drawn)
>200 µg/mL: MIC EF [2] | MIC PA [3]

COC(=O)c1cccc(NCC2OC3OC4C(CNc5cccc(C(=O)OC)c5)OC(OC5C(CNc6cccc(C(=O)OC)c6)OC(OC6C(CNc7cccc(C(=O)OC)c7)OC(OC7C(CNc8cccc(C(=O)OC)c8)OC(OC8C(CNc9cccc(C(=O)OC)c9)OC(OC9C(CNc%10cccc(C(=O)OC)c%10)OC(OC2C(O)C3O)C(O)C9O)C(O)C8O)C(O)C7O)C(O)C6O)C(O)C5O)C(O)C4O)c1 (stereo not drawn)
>200 µg/mL: MIC SA [1] | MIC SC [4] | MIC PA [3] | MIC EC [5]

OC1C2OC(CN3CCCc4ccccc43)C(OC3OC(CN4CCCc5ccccc54)C(OC4OC(CN5CCCc6ccccc65)C(OC5OC(CN6CCCc7ccccc76)C(OC6OC(CN7CCCc8ccccc87)C(OC7OC(CN8CCCc9ccccc98)C(OC8OC(CN9CCCc%10ccccc%109)C(O2)C(O)C8O)C(O)C7O)C(O)C6O)C(O)C5O)C(O)C4O)C(O)C3O)C1O (stereo not drawn)
>200 µg/mL: MIC EF [2] | MIC SC [4] | MIC PA [3] | MIC EC [5]

OC1C2OC(CNC3CCCc4ccccc43)C(OC3OC(CNC4CCCc5ccccc54)C(OC4OC(CNC5CCCc6ccccc65)C(OC5OC(CNC6CCCc7ccccc76)C(OC6OC(CNC7CCCc8ccccc87)C(OC7OC(CNC8CCCc9ccccc98)C(OC8OC(CNC9CCCc%10ccccc%109)C(O2)C(O)C8O)C(O)C7O)C(O)C6O)C(O)C5O)C(O)C4O)C(O)C3O)C1O (stereo not drawn)
>200 µg/mL: MIC EF [2] | MIC PA [3] | MIC EC [5]

CCCCCCCCCCCCCCCC[N+]12CC[N+](CC(=O)NCC3OC4OC5C(CNC(=O)C[N+]67CC[N+](CCCCCCCCCCCCCCCC)(CC6)CC7)OC(OC6C(CNC(=O)C[N+]78CC[N+](CCCCCCCCCCCCCCCC)(CC7)CC8)OC(OC7C(CNC(=O)C[N+]89CC[N+](CCCCCCCCCCCCCCCC)(CC8)CC9)OC(OC8C(CNC(=O)C[N+]9%10CC[N+](CCCCCCCCCCCCCCCC)(CC9)CC%10)OC(OC9C(CNC(=O)C[N+]%10%11CC[N+](CCCCCCCCCCCCCCCC)(CC%10)CC%11)OC(OC%10C(CNC(=O)C[N+]%11%12CC[N+](CCCCCCCCCCCCCCCC)(CC%11)CC%12)OC(OC3C(O)C4O)C(O)C%10O)C(O)C9O)C(O)C8O)C(O)C7O)C(O)C6O)C(O)C5O)(CC1)CC2 (stereo not drawn)
>200 µg/mL: MIC EF [2] | MIC SC [4] | MIC PA [3] | MIC EC [5]

Cc1ccc(NCC2OC3OC4C(CNc5ccc(C)cc5)OC(OC5C(CNc6ccc(C)cc6)OC(OC6C(CNc7ccc(C)cc7)OC(OC7C(CNc8ccc(C)cc8)OC(OC8C(CNc9ccc(C)cc9)OC(OC9C(CNc%10ccc(C)cc%10)OC(OC2C(O)C3O)C(O)C9O)C(O)C8O)C(O)C7O)C(O)C6O)C(O)C5O)C(O)C4O)cc1 (stereo not drawn)
>200 µg/mL: MIC EF [2] | MIC SC [4] | MIC PA [3] | MIC EC [5]

OC1C2OC(CN3CCN(C4CCCCC4)CC3)C(OC3OC(CN4CCN(C5CCCCC5)CC4)C(OC4OC(CN5CCN(C6CCCCC6)CC5)C(OC5OC(CN6CCN(C7CCCCC7)CC6)C(OC6OC(CN7CCN(C8CCCCC8)CC7)C(OC7OC(CN8CCN(C9CCCCC9)CC8)C(OC8OC(CN9CCN(C%10CCCCC%10)CC9)C(O2)C(O)C8O)C(O)C7O)C(O)C6O)C(O)C5O)C(O)C4O)C(O)C3O)C1O (stereo not drawn)
>200 µg/mL: MIC EF [2] | MIC SC [4] | MIC PA [3] | MIC EC [5]

Cl.Cl.Cl.Cl.Cl.Cl.Cl.N=C(N)NCCCCCCSCC1OC2OC3C(CSCCCCCCNC(=N)N)OC(OC4C(CSCCCCCCNC(=N)N)OC(OC5C(CSCCCCCCNC(=N)N)OC(OC6C(CSCCCCCCNC(=N)N)OC(OC7C(CSCCCCCCNC(=N)N)OC(OC8C(CSCCCCCCNC(=N)N)OC(OC1C(O)C2O)C(O)C8O)C(O)C7O)C(O)C6O)C(O)C5O)C(O)C4O)C(O)C3O (stereo not drawn)
>200 µg/mL: MIC EF [2] | MIC SC [4] | MIC PA [3] | MIC EC [5]

CC(C)[C@H](C)NCC1OC2OC3C(CN[C@@H](C)C(C)C)OC(OC4C(CN[C@@H](C)C(C)C)OC(OC5C(CN[C@@H](C)C(C)C)OC(OC6C(CN[C@@H](C)C(C)C)OC(OC7C(CN[C@@H](C)C(C)C)OC(OC8C(CN[C@@H](C)C(C)C)OC(OC1C(O)C2O)C(O)C8O)C(O)C7O)C(O)C6O)C(O)C5O)C(O)C4O)C(O)C3O (stereo partly drawn)
>200 µg/mL: MIC EF [2] | MIC PA [3]

Source: patent publication US20110071108A1, “Beta-Cyclodextrin Derivatives as Antibacterial Agents” (Pinnacle Pharmaceuticals, Inc., priority 2005, published 2011)
